Earlier results on one substance are cited in EP0920301B1, “THERAPEUTIC OR HYGIENIC COMPOSITIONS WITH CONTROLLED AND PROLONGED RELEASE OF THE ACTIVE PRINCIPLE(S), IN PARTICULAR FOR OPHTHALMIC USE” (priority 1997, dated 1998).

The subject of the data set is la plupart des agents infectieux. Conditions: stated threshold, source not given.

As to sulfate de gentamicine, the concentration inhibitrice minimale is 4 µg/mL.
